Source: patent publication US5292734A, “Angiotensin II receptor blocking 2,3,6 substituted quinazolinones” (American Cyanamid Company, priority 1993, dated 1994)

Target: T1, Angiotensin II Receptor (Bos taurus, UniProt P25104)
T1 construct: The brownish tissue forming the adrenal cortex is scraped off and finely minced with scissors before homogenization; from tissue; host or cells: beef adrenal cortex, microsomal membranes (100,000 x g pellet)
T1 sequence (P25104 1-359): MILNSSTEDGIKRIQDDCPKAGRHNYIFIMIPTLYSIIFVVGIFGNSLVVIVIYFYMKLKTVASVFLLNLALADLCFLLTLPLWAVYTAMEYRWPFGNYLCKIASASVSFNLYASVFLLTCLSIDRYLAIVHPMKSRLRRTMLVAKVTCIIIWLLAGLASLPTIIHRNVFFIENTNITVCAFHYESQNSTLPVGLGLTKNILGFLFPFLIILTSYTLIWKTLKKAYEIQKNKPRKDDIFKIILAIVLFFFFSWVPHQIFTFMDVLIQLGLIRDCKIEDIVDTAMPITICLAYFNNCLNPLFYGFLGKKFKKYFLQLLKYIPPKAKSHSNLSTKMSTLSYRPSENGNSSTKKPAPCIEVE
Experiment: Receptor binding assay: binding of [^125 I](Sar^1,Ile^8)AngII
Settings: beef adrenal cortex membranes, 60 min, room temperature
Source text: Beef adrenals are obtained from a local slaughter house (Maxwell-Cohen). [^125 I](Sar^1,Ile^8)AngII, S. A. 2200 Ci/mmole, is purchased from Dupont (NEN®, Boston, Mass.). All unlabeled AngII analogs, Dimethylsulfoxide (DMSO), nucleotides, bovine serum albumin (BSA) are purchased from Sigma Chemical Co., St. Louis, Mo. U.S.A.
Approximately sixteen (16) to twenty (20) beef adrenal glands are processed as follows: fresh adrenal glands received on crushed ice are cleaned of fatty tissues and the tough membranes encapsulating the glands are removed and discarded. […] A 100 ul aliquot is withdrawn and the protein content of the preparation is determined by the Lowry's method (Lowry, O. H., Rosebrough, N. P., Farr, A. L. and Randall, R. J., Protein measurement with Polin phenol reagent. J. Biol. Chem., […], 265-275, 1951). […]
The binding of [^125 I](Sar^1 Ile^8)AngII to microsomal membranes is initiated by the addition of reconstituted membranes (1:10 vols.) in freshly made 50.0 mM Tris.HCl buffer, pH 7.4 containing 0.25% heat inactivated bovine serum albumin (BSA): 80 ul membrane protein (10 to 20 ug/assay) to wells already containing 100 ul of incubation buffer (as described above) and 20 ul [^125 I](Sar^1 Ile^8)AngII (Specific Activity, 2200 Ci/mmole). Non-specific binding is measured in the presence of 1.0 uM unlabeled (Sar^1,Ile^8)AngII, added in 20 ul volume. […]

CCCCc1nc2ccc(C(O)CC3CCCN3)cc2c(=O)n1Cc1ccc(-c2ccccc2-c2nnn[nH]2)cc1 (racemic) [Example 80, CIS-(+/-)-2-Butyl-6-[1-hydroxy-2-(2-pyrrolidinyl)ethyl]-3-[[2'-(1H-tetrazol-5-yl)[1,1'-biphenyl]-4-yl]methyl] -4(3H)-quinazolinone]
IC50: 41 nM
